Reference: ChEMBL document CHEMBL3045968, “Antitumor activities of some new 1,3,2-oxaza- and 1,3,2-diazaphosphorinanes against K562, MDA-MB-231, and HepG2 cells” (Med Chem Res, 2012)

How the values were obtained:
[1] = octanol/water
Description: Lipophilicity, log P of the compound

MDA-MB-231 = assay: cells; settings: Homo sapiens, MDA-MB-231, 48 h
Description: Cytotoxicity against Homo sapiens (human) MDA-MB-231 cells after 48 hr by MTT assay

HepG2 = assay: cells; settings: Homo sapiens, HepG2, 48 h
Description: Cytotoxicity against Homo sapiens (human) HepG2 cells after 48 hr by MTT assay

K562 = assay: cells; settings: Homo sapiens, K562, 48 h
Description: Cytotoxicity against Homo sapiens (human) K562 cells after 48 hr by MTT assay

physchem = settings: octanol/water
Description: Lipophilicity, log P of the compound

| Structure (SMILES) | logP [1] | IC50 (MDA-MB-231) | IC50 (HepG2) | IC50 (K562) | logP (physchem) |
| --- | --- | --- | --- | --- | --- |
| Cc1ccc(OP2(=O)NCC(C)(C)CN2)cc1 | 0.12 | 230 nM | 2200 nM | 1440 nM |  |
| Cc1ccc(OP2(=O)NCCCO2)cc1 (stereo not drawn) |  | 870 nM | 590 nM | 710 nM | 0.76 |
| NS(=O)(=O)c1ccc(NP2(=O)NCCCO2)cc1 (stereo not drawn) |  | 170 nM | 140 nM | 150 nM | 1.88 |
| O=P1(Nc2ccccc2)NCCCO1 (stereo not drawn) |  | 830 nM | 600 nM | 550 nM | 0.29 |
| O=[N+]([O-])c1ccc(NP2(=O)NCCCO2)cc1 (stereo not drawn) |  | 90 nM | 150 nM | 890 nM | -0.53 |
| CC1(C)CNP(=O)(Nc2ccccc2)NC1 |  | 2040 nM | 3170 nM | 3110 nM | -0.03 |
| Nc1ccc(S(N)(=O)=O)cc1 [SULFANILAMIDE] |  | 90 nM | 80 nM | 200 nM |  |
| O=P1(N(CCCl)CCCl)NCCCO1 (stereo not drawn) [CYCLOPHOSPHAMIDE ANHYDROUS] |  | 90 nM | 240 nM | 150 nM |  |
| NS(=O)(=O)c1ccc(NP2(=O)NCCCN2)cc1 |  | 110 nM | 130 nM | 190 nM | 1.56 |
| COc1ccc(NP2(=O)NCCCO2)cc1 (stereo not drawn) |  | 230 nM | 60 nM | 200 nM | -0.71 |
